Measurements as given in US7579006B2, “Method of treating immune pathologies with low dose estrogen” (Oregon Health and Science University, priority 2000, dated 2009).

Columns and labels:
Format in all cases: in vivo
[1] = tested on: splenic T cells; experiment: Splenic T cell proliferation and cytokine responses of treated Tg mice with EAE; conditions: 0.36 mg pellet, average
Protocol: Proliferation assay. Spleens (SPL) were removed surgically, and single cell suspensions were prepared. Proliferative responses of T cells were determined in 96-well microtiter plates by incubating 4×10^5 spleen cells plus antigen at an optimal concentration of 20 μg/well. Cultures were incubated for 72 hr at 37° C. and 7% CO2, the last 18 hr in the presence of 0.5 μCi ^3H-thymidine. Cells were harvested onto glass fiber filters, and thymidine uptake was determined by liquid scintillation. Mean cpm±SEM were calculated from triplicate wells. The stimulation index (SI) was obtained by dividing cpm from antigen-stimulated wells by cpm from wells with no antigen. SI in cultures stimulated with GST alone was subtracted from the SI induced with GST-BV8S2 protein.
Proliferation assay. Proliferation responses of splenic T cells were determined essentially as described in Example II, except that antigen was used at an optimal concentration of 50 μg/ml.

[2] = tested on: B10.PL mice; experiment: EAE induced with MBP Ac1-11 in B10.PL mice; conditions: for inhibition of EAE: B10.PL females
[3] = tested on: Tg female mice; experiment: EAE in BV8S2 transgenic (Tg) female mice; conditions: for inhibition of EAE: Tg females
[4] = tested on: draining lymph node (DLN) cells; experiment: Flow cytometry of activation and adhesion markers on DLN cells of SJL mice with EAE; conditions: DLN cells at peak of EAE
Protocol: Immunofluorescent staining for flow cytometry. Draining lymph node (DLN) cells were removed during the peak of clinical symptoms and analyzed for the expression of cell surface proteins by fluorescent staining ex vivo. The following fluorochrome conjugated antibodies obtained from Pharmingen Inc. (San Diego, Calif.) were used for the direct staining of DLN cells: anti-CD4, anti-CD25, anti-CD69, anti-CD95L, anti-CD44, anti-CD62L, anti-CD49d. Two-color immunofluorescent analysis was performed on a FACScan instrument (Becton Dickinson, Mountain View, Calif.) using Cellquest software. For each experiment the cells were stained with isotype control antibodies to establish background staining, and to set the quadrants prior to calculating the percent positive staining cells. […] Alterations in the expression of adhesion or activation markers on T cells are often indicative of functional changes in the cell. Monoclonal antibodies specific for a number of these markers were used to assess whether estrogen therapy altered their expression. Draining lymph node (DLN) cells were recovered from mice during the peak of clinical EAE, incubated with the indicated fluorochrome conjugated monoclonal antibodies, and surface expression measured by fluorescent activated cell analyzer.

[5] = Serum 17β-estradiol measured by RIA in Tg mice; conditions: 0.36 mg pellet
Protocol: Androgen and estrogen detection. Mice were bled by cardiac puncture and the blood was allowed to clot at 4° C. overnight. The samples were centrifuged, and the sera collected and stored at −80° C. until hormone analysis was performed. Serum levels of estrogen were determined by radioimmunoassay (RIA) after Sephadex LH-20 column chromatography, as described in Roselli et al., Endocrine 64:139 (1996). All samples were analyzed in a single assay.
17β-estradiol treatment. For 17β-estradiol hormone therapy, 3-mm pellets containing 0.36 mg of 17β-estradiol (Innovative Research of America, Sarasota, Fla.), expected to provide physiological equivalence of the estrus cycle (150-200 pg/ml in serum) over 60 days, were implanted s.c. on the animal's back 7 days before induction of EAE. […] The 17β-estradiol pellets provide continuous controlled release of a constant level of hormone over a period of 60 days. Serum concentrations of 17β-estradiol were evaluated in representative mice from each group. Sham treated mice had variable levels of 17β-estradiol that reflected both estrus and diestrus mice (ranging from about 20 to 200 pg/ml, on average about 50 pg/ml). […] E2-treated intact mice were also variable (about 200-400 pg/ml), reflecting the combination of native estrus/diestrus levels plus the exogenous estradiol from the pellet, whereas the E2-treated OVX mice were somewhat lower (about 150-200 pg/ml).

[6] = tested on: spinal cord mRNA; experiment: RNAse protection assay of spinal cords of wildtype and cytokine knockout mice with EAE
Protocol: RNAse protection assay. Chemokine, chemokine receptor and cytokine mRNAs were detected by RPA essentially as described in Example III, except that analysis was performed on 20 μg total RNA.
Estrogen treatment reduces chemokine and chemokine receptor mRNA expression in the CNS. The egress of inflammatory cells into the CNS is a critical first step in the development of EAE. Chemokines are low molecular weight chemotactic molecules that are thought to play an important role in the migration and retention of immunocompetent cells in the CNS. The influence of E2 treatment on chemokine and chemokine receptor mRNA in the spinal cords of WT and cytokine deficient mice was measured using the RNAse protection assay (RPA). Total RNA was purified from spinal cords collected from mice at the peak of EAE (day 12-16 post-immunization) and chemokine/chemokine receptor specific mRNA was detected using radiolabeled riboprobes. mRNAs coding for many of the chemokine and receptor family members were detectable in the spinal cords of WT C57BL/6 mice with EAE (FIG. 18). RANTES and IP-10 were expressed at the highest levels, followed by MIP-1α, MIP-2 and MCP-1. The levels of TCA-3 mRNA were below the limits of detection for this assay. […]
The expression of cytokine mRNA in the spinal cords of mice at the peak of EAE (day 12-16 post-immunization) was measured by RPA analysis. […]

[7] = 0.36 mg pellet, intact Tg females (Example III)
[8] = non-ovariectomized Tg females, BV8S2 with weekly boosting, E2 0.36 mg pellets

Question: Which results are given for `C[C@]12CC[C@@H]3c4ccc(O)cc4CC[C@H]3[C@@H]1CC[C@@H]2O` [17β-estradiol]?
Answer: inhibition of proliferation of MBP-Ac1-11 specific T cells [1]: about 47%; CDT ([2]; 0.18 mg/pellet (diestrus)): 5.8 ± 2.9; Incidence ([2]; 0.18 mg/pellet (diestrus)): 3/6; Incidence (%) ([2]; 0.18 mg/pellet (diestrus)): 50%; Onset ([2]; 0.18 mg/pellet (diestrus)): 25.7 ± 1.2 days; Peak (disease score) ([2]; 0.18 mg/pellet (diestrus)): 1.7 ± 0.92; CDT ([2]; 0.36 mg/pellet (estrus)): 13.5 ± 6.2; Incidence ([2]; 0.36 mg/pellet (estrus)): 15/26; Incidence (%) ([2]; 0.36 mg/pellet (estrus)): 58%; Onset ([2]; 0.36 mg/pellet (estrus)): 26.5 ± 1.3 days; Peak (disease score) ([2]; 0.36 mg/pellet (estrus)): 2.61 ± 0.60; CDT ([2]; 2.50 mg/pellet (pregnancy)): 0 ± 0; Incidence ([2]; 2.50 mg/pellet (pregnancy)): 0/15; Incidence (%) ([2]; 2.50 mg/pellet (pregnancy)): 0%; Onset ([2]; 2.50 mg/pellet (pregnancy)): 0 ± 0 days; Peak (disease score) ([2]; 2.50 mg/pellet (pregnancy)): 0 ± 0; CDT ([2]; 15.0 mg/pellet (high)): 1.4 ± 3.8; Incidence ([2]; 15.0 mg/pellet (high)): 2/8; Incidence (%) ([2]; 15.0 mg/pellet (high)): 25%; Onset ([2]; 15.0 mg/pellet (high)): 29 ± 1.4 days; Peak (disease score) ([2]; 15.0 mg/pellet (high)): 2.0 ± 1.0; inhibition of EAE ([2]; 2.5 mg pellets): essentially complete inhibition of EAE; inhibition of EAE ([2]; 15 mg pellets): essentially complete inhibition of EAE; inhibition of EAE ([2]; estrus (0.36 mg pellets) to diestrus levels (0.10 mg pellets)): substantial inhibition; CDI [3, 7]: 40.4 ± 7.1; Incidence [3, 7]: 15/18; Onset [3, 7]: 17.4 ± 1.8; Peak [3, 7]: 2.5 ± 0.5; inhibition of EAE ([3]; 0.36 mg pellets): only moderate inhibition; inhibition of EAE ([3]; 15 mg pellets): marked but incomplete inhibition of EAE; Average CDI (10-30) [3, 8]: 37.3 ± 6.2^A; Incidence [3, 8]: 25/33; Mortality [3, 8]: 1/33; Onset [3, 8]: 15.1 ± 2.1A; Peak [3, 8]: 3.6 ± 0.7^A; CD4, % of Total ([4]; 0.36 mg pellet): 49%; CD25, % of CD4+ T cells ([4]; 0.36 mg pellet): 5.9%; CD44, % of CD4+ T cells ([4]; 0.36 mg pellet): 43%; CD62L, % of CD4+ T cells ([4]; 0.36 mg pellet): 7.0%; CD69, % of CD4+ T cells ([4]; 0.36 mg pellet): 6.6%; CD49d, % of CD4+ T cells ([4]; 0.36 mg pellet): 45%; FASL, % of CD4+ T cells ([4]; 0.36 mg pellet): 2.7%; CD4, % of Total ([4]; 2.5 mg pellet): 49%; CD25, % of CD4+ T cells ([4]; 2.5 mg pellet): 6.3%; CD44, % of CD4+ T cells ([4]; 2.5 mg pellet): 41%; CD62L, % of CD4+ T cells ([4]; 2.5 mg pellet): 6.7%; CD69, % of CD4+ T cells ([4]; 2.5 mg pellet): 6.5%; CD49d, % of CD4+ T cells ([4]; 2.5 mg pellet): 43%; FASL, % of CD4+ T cells ([4]; 2.5 mg pellet): 4.2%; serum 17β-estradiol ([5]; OVX Tg mice): 100 to 200 pg/mL; serum 17β-estradiol ([5]; OVX Tg mice, listed as E2): 150 to 200 pg/mL; serum 17β-estradiol ([5]; intact Tg mice (pellet plus native hormone)): 150 to 400 pg/mL; serum 17β-estradiol ([5]; intact Tg mice (pellet plus native hormone), listed as E2): 200 to 400 pg/mL; levels of LT-β, TNF-α and IFN-γ mRNA in spinal cords ([6]; C57BL/6 and cytokine knockout mice, except LT-β in IFN-γ deficient mice): significantly reduced; expression of all chemokine and chemokine receptor mRNA in spinal cord ([6]; WT and cytokine deficient mice, 2.5 mg pellet): significantly diminished or absent
